Test results: US20250057963A1, “DISCOVERY OF PIPERLONGUMINE AS A NOVEL E3 LIGASE LIGAND” (University of Florida Research Foundation, Incorporated, priority 2021, published 2025)

Tests used:
MOLT4 cells = assay: Viability (MTS) assay in MOLT4 cells; type: cell-based, Human; conditions: 72 h treatment
Procedure: Human T-ALL MOLT4 (Cat. No. CRL-1582), K562 (Cat. No. CCL-243), NCI-H1299 (Cat. No. CRL-5803), NCI-H2228 (Cat. No. CRL-5935), LNCaP (Cat. No. CRL-1740), 22RV1 (Cat. No. CRL-2505), PC3 (Cat. No. CRL-1435), DU145 (Cat. No. HTB-81), and epithelial kidney HEK 293T (293T, Cat. No. ACS-4500) cell lines were recently purchased from American Type Culture Collection (ATCC, Manassas, VA, USA). MOLT4, K562, NCI—H-1299, NCI-H2228, LNCap, and 22RV 1 cell lines were cultured in RPMI 1640 medium (Cat No. 22400-089, Thermo Fisher Scientific, Waltham, MA, USA) supplemented with 10% (v/v) heat-inactivated fetal bovine serum (FBS, Cat. No. S11150H, Atlanta Biologicals, Flowery Branch, GA, USA), 100 U/mL penicillin and 100 pig/mL streptomycin (Pen-Strep, Cat. No. 15140122, Thermo Fisher Scientific). PC3 cells were cultured in complete F—12K medium (Kaighn's modification of Ham's F-12 medium, Cat. No. 30-2004, ATCC) supplemented with 10% (v/v) heat-inactivated FBS, 100 U/mL penicillin, and 100 μg/mL streptomycin. […]
Viability (MTS) assays in various cancer cells followed the methods described in our previous report (Khan et al., 2019). The data were expressed as average % cell viability and fitted in non-linear regression curves using GraphPad Prism 9 (GraphPad Software, La Jolla, CA, USA).

CDK9 = CDK9 (Homo sapiens, UniProt P50750); assay: CDK9 degradation in 293T and K562 cells (immunoblot); type: cell-based; set-up: endogenous in cells; host or cells: MOLT4, 293T, K562, NCI-H1299, LNCaP
Sequence of CDK9 (P50750 whole entry): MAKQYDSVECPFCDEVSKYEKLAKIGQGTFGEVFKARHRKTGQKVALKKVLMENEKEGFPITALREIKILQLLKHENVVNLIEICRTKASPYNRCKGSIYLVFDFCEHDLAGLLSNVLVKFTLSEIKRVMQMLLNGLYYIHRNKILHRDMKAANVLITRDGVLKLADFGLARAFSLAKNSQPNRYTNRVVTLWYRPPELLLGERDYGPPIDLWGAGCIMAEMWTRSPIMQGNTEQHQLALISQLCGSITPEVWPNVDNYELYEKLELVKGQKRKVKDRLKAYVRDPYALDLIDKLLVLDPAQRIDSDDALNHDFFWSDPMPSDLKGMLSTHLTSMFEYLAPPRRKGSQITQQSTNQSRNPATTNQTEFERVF
Procedure: Human T-ALL MOLT4 (Cat. No. CRL-1582), K562 (Cat. No. CCL-243), NCI-H1299 (Cat. No. CRL-5803), NCI-H2228 (Cat. No. CRL-5935), LNCaP (Cat. No. CRL-1740), 22RV1 (Cat. No. CRL-2505), PC3 (Cat. No. CRL-1435), DU145 (Cat. No. HTB-81), and epithelial kidney HEK 293T (293T, Cat. No. ACS-4500) cell lines were recently purchased from American Type Culture Collection (ATCC, Manassas, VA, USA). MOLT4, K562, NCI—H-1299, NCI-H2228, LNCap, and 22RV 1 cell lines were cultured in RPMI 1640 medium (Cat No. 22400-089, Thermo Fisher Scientific, Waltham, MA, USA) supplemented with 10% (v/v) heat-inactivated fetal bovine serum (FBS, Cat. No. S11150H, Atlanta Biologicals, Flowery Branch, GA, USA), 100 U/mL penicillin and 100 pig/mL streptomycin (Pen-Strep, Cat. No. 15140122, Thermo Fisher Scientific). PC3 cells were cultured in complete F—12K medium (Kaighn's modification of Ham's F-12 medium, Cat. No. 30-2004, ATCC) supplemented with 10% (v/v) heat-inactivated FBS, 100 U/mL penicillin, and 100 μg/mL streptomycin. DU145 cells were cultured in complete Eagle's Minimum Essential Medium (EMEM, Cat. No. 30-2003, ATCC) supplemented with 10% (v/v) heat-inactivated FBS, 100 U/mL penicillin, and 100 μg/mL streptomycin. 293T cells were cultured in complete Dulbecco's modified Eagle medium (DMEM, Cat. No. 12430054, Thermo Fisher Scientific) with 10% (v/v) heat-inactivated FBS, 100 U/mL penicillin, and 100 μg/mL streptomycin. All the cell lines were maintained in a humidified incubator at 37° C. and 5% CO2.
Cells were collected and lysed in RIPA lysis buffer (Cat. #BP-115DG, Boston Bio Products, Ashland, MA, USA) supplemented with protease and phosphatase inhibitor cocktails (Cat. #PPC1010, Sigma-Aldrich, St. Louis, MO, USA). Protein samples were made and immunoblotting was performed as described previously (Khan et al., 2019; Lv et al., 2021). […]
Immunoblot data were quantified using the ImageJ (v 1.53a) software from NIH. […]

## COc1cc(/C=C/C(=O)N2CCC=CC2=O)cc(OC)c1OCCN1CCN(C(=O)CN2CCC(C(=O)Nc3ncc(SCc4ncc(C(C)(C)C)o4)s3)CC2)CC1 [compound 955, (E)-N-(5-(((5-(tert-butyl)oxazol-2-yl)methyl)thio)thiazol-2-yl)-1-(2-(4-(2-(2,6-dimethoxy-4-(3-oxo-3-(6-oxo-3,6-dihydropyridin-1(2H)-yl)prop-1-en-1-yl)phenoxy)ethyl)piperazin-1-yl)-2-oxoethyl)piperidine-4-carboxamide]
MOLT4 cells
  potency to kill MOLT4 cells compared with SNS-032: more potent to kill MOLT4 cells compared with SNS-032
CDK9; 293T and K562 cells, MG132, bortezomib, MLN4924 pre-treatment
  dependence of 955-induced CDK9 degradation on the UPS: UPS dependent manner
CDK9; 293T cells, 0.1 μM or 1 μM 955
  CDK9 degradation in 293T cells: time and dose dependent manner
CDK9; K562 cells, 0.1 μM 955
  CDK9 degradation in K562 cells: time and dose dependent manner
